{"source": "patent US20230203081A1", "about": "“LINCOSAMIDE ANTIBIOTICS AND USES THEREOF” (President and Fellows of Harvard College, priority 2020, published 2023)", "format_in_all_cases": "cell-based", "key": {"E. faecium Clinical VRE": {"tested_on": "E. faecium Clinical VRE", "experiment": "MIC (broth microdilution or agar dilution, CLSI)", "conditions": "E. faecium Clinical VRE", "experimental": "(§1) Minimum inhibitory concentrations (MICs) were determined by broth microdilution method or agar dilution method following the Clinical and Laboratory Standards Institute guidelines. Standard bacterial strains were obtained from American Type Culture Collection (ATCC). Other bacterial strains were obtained from hospitals and commercial sources, so noted in Table 11. Before the start of the MIC experiment, standard and test compound stock solutions were prepared in dimethyl sulfoxide (DMSO, Aldrich D2650) at a stock concentration of 5,120 μg/mL. The compound concentration range typically employed for each experiment was 128-0.06 μg/mL (2.5% final DMSO concentration). Clindamycin was used as a comparator in all experiments and each experiment was performed in triplicate. Specialized procedures were employed for streptococcal and anaerobic strains. All other bacterial strains were sub-cultured on blood agar plates (tryptic soy agar with 5% sheep blood, Hardy Diagnostics) and incubated overnight at 35° C. Organisms were suspended in cation-adjusted Mueller-Hinton broth (CaMHB, BD 212322) and optical density was adjusted to 0.5 McFarland standard. Suspensions were further diluted to obtain a final inoculum of 5×10^5 CFU/mL for broth microdilution experiments."}, "S. aureus cErmA": {"tested_on": "S. aureus cErmA", "experiment": "MIC (broth microdilution or agar dilution, CLSI)", "conditions": "S. aureus cErmA", "experimental": "as §1"}, "P. aeruginosa ATCC 27853": {"tested_on": "P. aeruginosa ATCC 27853", "experiment": "MIC (broth microdilution or agar dilution, CLSI)", "conditions": "P. aeruginosa ATCC 27853", "experimental": "as §1"}, "S. pneumoniae ATCC 49619": {"tested_on": "S. pneumoniae ATCC 49619", "experiment": "MIC (broth microdilution or agar dilution, CLSI)", "experimental": "(§2) Minimum inhibitory concentrations (MICs) were determined by broth microdilution method or agar dilution method following the Clinical and Laboratory Standards Institute guidelines. Standard bacterial strains were obtained from American Type Culture Collection (ATCC). Other bacterial strains were obtained from hospitals and commercial sources, so noted in Table 11. […] Specialized procedures were employed for streptococcal and anaerobic strains. All other bacterial strains were sub-cultured on blood agar plates (tryptic soy agar with 5% sheep blood, Hardy Diagnostics) and incubated overnight at 35° C. […] Suspensions were further diluted to obtain a final inoculum of 5×10^5 CFU/mL for broth microdilution experiments."}, "K. oxytoca Clinical": {"tested_on": "K. oxytoca Clinical", "experiment": "MIC (broth microdilution or agar dilution, CLSI)", "conditions": "K. oxytoca Clinical", "experimental": "as §2"}, "S. aureus ATCC 29213": {"tested_on": "S. aureus ATCC 29213", "experiment": "MIC (broth microdilution or agar dilution, CLSI)", "experimental": "as §2"}, "E. faecalis ATCC 29212": {"tested_on": "E. faecalis ATCC 29212", "experiment": "MIC (broth microdilution or agar dilution, CLSI)", "experimental": "as §2"}, "A. baumannii ATCC 19606": {"tested_on": "A. baumannii ATCC 19606", "experiment": "MIC (broth microdilution or agar dilution, CLSI)", "conditions": "A. baumannii ATCC 19606", "experimental": "as §2"}, "S. pyogenes ATCC 19615": {"tested_on": "S. pyogenes ATCC 19615", "experiment": "MIC (broth microdilution or agar dilution, CLSI)", "experimental": "as §2"}, "E. coli LptD": {"tested_on": "E. coli LptD", "experiment": "MIC (broth microdilution or agar dilution, CLSI)", "conditions": "E. coli LptD", "experimental": "as §2"}, "E. coli ATCC 25922": {"tested_on": "E. coli ATCC 25922", "experiment": "MIC (broth microdilution or agar dilution, CLSI)", "conditions": "E. coli ATCC 25922", "experimental": "as §2"}, "E. coli ΔTolC": {"tested_on": "E. coli ΔTolC", "experiment": "microbe, parasite or virus in culture", "conditions": "E. coli ΔTolC", "experimental": "as §2"}, "[1]": {"conditions": "Enterococcus faecium, read-out: MIC"}, "[2]": {"conditions": "Staphylococcus aureus, read-out: MIC"}, "[3]": {"conditions": "Pseudomonas aeruginosa, ATCC27853, read-out: MIC"}, "[4]": {"conditions": "Streptococcus pneumoniae, ATCC49619, S. pneumoniae ATCC 49619, read-out: MIC"}, "[5]": {"conditions": "Klebsiella oxytoca, read-out: MIC"}, "[6]": {"conditions": "Staphylococcus aureus, ATCC29213, S. aureus ATCC 29213, read-out: MIC"}, "[7]": {"conditions": "Enterococcus faecalis, ATCC29212, E. faecalis ATCC 29212, read-out: MIC"}, "[8]": {"conditions": "Acinetobacter baumannii, ATCC19606, read-out: MIC"}, "[9]": {"conditions": "Streptococcus pyogenes, ATCC19615, S. pyogenes ATCC 19615, read-out: MIC"}, "[10]": {"conditions": "Escherichia coli, read-out: MIC"}, "[11]": {"conditions": "Escherichia coli, ATCC25922, read-out: MIC"}}, "note": "Like-named read-outs stand apart in the source and are kept apart here.", "data": [{"compound": "CSC1O[C@H]([C@H](NC(=O)[C@H]2NC[C@@H]3C[C@H](CC(F)F)CCO[C@H]32)[C@H](C)Cl)C(O)[C@@H](O)[C@H]1O", "note": "(stereo partly drawn) [FSA-10-09-093]", "values": [{"measurement": "MIC", "setting": "E. faecium Clinical VRE", "value": 8, "unit": "µg/mL"}, {"measurement": "MIC", "setting": "S. aureus cErmA", "value": 32, "unit": "µg/mL"}, {"measurement": "MIC", "setting": "P. aeruginosa ATCC 27853", "value": ">128", "unit": "µg/mL"}, {"measurement": "MIC", "setting": "S. pneumoniae ATCC 49619; S. pneumoniae ATCC 49619", "value": 0.5, "unit": "µg/mL"}, {"measurement": "MIC", "setting": "K. oxytoca Clinical", "value": 16, "unit": "µg/mL"}, {"measurement": "MIC", "setting": "S. aureus ATCC 29213; S. aureus ATCC 29213", "value": 0.25, "unit": "µg/mL"}, {"measurement": "MIC", "setting": "E. faecalis ATCC 29212; E. faecalis ATCC 29212", "value": 0.25, "unit": "µg/mL"}, {"measurement": "MIC", "setting": "A. baumannii ATCC 19606", "value": 128, "unit": "µg/mL"}, {"measurement": "MIC", "setting": "S. pyogenes ATCC 19615; S. pyogenes ATCC 19615", "value": 0.5, "unit": "µg/mL"}, {"measurement": "MIC", "setting": "E. coli LptD", "value": 4, "unit": "µg/mL"}, {"measurement": "MIC", "setting": "E. coli ATCC 25922", "value": 16, "unit": "µg/mL"}, {"measurement": "MIC", "setting": "E. coli ΔTolC", "value": 1, "unit": "µg/mL"}]}, {"compound": "CSC1O[C@H]([C@H](NC(=O)[C@H]2NC[C@@H]3C[C@H](CC4CC4)CCO[C@H]32)[C@H](C)Cl)C(O)[C@@H](O)[C@H]1O", "note": "(stereo partly drawn) [FSA-10-10-001]", "values": [{"measurement": "MIC", "setting": "E. faecium Clinical VRE; [1]", "value": 2, "unit": "µg/mL"}, {"measurement": "MIC", "setting": "S. aureus cErmA; [2]", "value": 4, "unit": "µg/mL"}, {"measurement": "MIC", "setting": "P. aeruginosa ATCC 27853; [3]", "value": "> 128", "unit": "µg/mL"}, {"measurement": "MIC", "setting": "S. pneumoniae ATCC 49619; [4]", "value": 0.125, "unit": "µg/mL"}, {"measurement": "MIC", "setting": "K. oxytoca Clinical; [5]", "value": 8, "unit": "µg/mL"}, {"measurement": "MIC", "setting": "S. aureus ATCC 29213; [6]", "value": 0.125, "unit": "µg/mL"}, {"measurement": "MIC", "setting": "E. faecalis ATCC 29212; [7]", "value": 0.06, "unit": "µg/mL"}, {"measurement": "MIC", "setting": "A. baumannii ATCC 19606; [8]", "value": 16, "unit": "µg/mL"}, {"measurement": "MIC", "setting": "S. pyogenes ATCC 19615; [9]", "value": 0.125, "unit": "µg/mL"}, {"measurement": "MIC", "setting": "E. coli LptD; [10]", "value": 0.5, "unit": "µg/mL"}, {"measurement": "MIC", "setting": "E. coli ATCC 25922; [11]", "value": 4, "unit": "µg/mL"}, {"measurement": "MIC", "setting": "E. coli ΔTolC; Escherichia coli", "value": 0.25, "unit": "µg/mL"}]}, {"compound": "COCCC[C@@H]1CCO[C@@H]2[C@H](CN[C@@H]2C(=O)N[C@H]([C@H](C)Cl)[C@H]2OC(SC)[C@H](O)[C@H](O)C2O)C1", "note": "(stereo partly drawn) [FSA-10-10-022]", "values": [{"measurement": "MIC", "setting": "E. faecium Clinical VRE; [1]", "value": 8, "unit": "µg/mL"}, {"measurement": "MIC", "setting": "S. aureus cErmA; [2]", "value": 16, "unit": "µg/mL"}, {"measurement": "MIC", "setting": "P. aeruginosa ATCC 27853; [3]", "value": "> 128", "unit": "µg/mL"}, {"measurement": "MIC", "setting": "S. pneumoniae ATCC 49619; [4]", "value": 0.25, "unit": "µg/mL"}, {"measurement": "MIC", "setting": "K. oxytoca Clinical; [5]", "value": 32, "unit": "µg/mL"}, {"measurement": "MIC", "setting": "S. aureus ATCC 29213; [6]", "value": 0.125, "unit": "µg/mL"}, {"measurement": "MIC", "setting": "E. faecalis ATCC 29212; [7]", "value": 2, "unit": "µg/mL"}, {"measurement": "MIC", "setting": "A. baumannii ATCC 19606; [8]", "value": "> 128", "unit": "µg/mL"}, {"measurement": "MIC", "setting": "S. pyogenes ATCC 19615; [9]", "value": 0.25, "unit": "µg/mL"}, {"measurement": "MIC", "setting": "E. coli LptD; [10]", "value": 4, "unit": "µg/mL"}, {"measurement": "MIC", "setting": "E. coli ATCC 25922; [11]", "value": 32, "unit": "µg/mL"}, {"measurement": "MIC", "setting": "E. coli ΔTolC; Escherichia coli", "value": 0.5, "unit": "µg/mL"}]}]}
